Experimental data from patent US20100184699A1, “Peptide Derived From Prostate-Related Protein As Cancer Vaccine Candidate For Prostate Cancer Patient Who Is Positive For Hla-A3 Super-Type Allele Molecule” (priority 2005, published 2010).

Tested on: peptide-specific IgG in plasma of prostate cancer patients and healthy donors
Assay: Detection of peptide-specific IgG in plasma by ELISA
Type: binding, human
Conditions: for IgG reactive to peptide in plasma: 1:100-diluted plasma
[1] = Prostate cancer patient 12, A11
[2] = Prostate cancer patient 14, A33
[3] = Prostate cancer patient 17, A33
[4] = Prostate cancer patient 19, A33
[5] = Prostate cancer patient 20, A33

Substance	IgG reactive to peptide in plasma, Total (positive/tested) (Healthy donors)	IgG reactive to peptide in plasma (Prostate cancer patient 4, A31)	IgG reactive to peptide in plasma (Prostate cancer patient 5, A31)	IgG reactive to peptide in plasma (Prostate cancer patient 6, A31)	IgG reactive to peptide in plasma (Prostate cancer patient 9, A11)	IgG reactive to peptide in plasma [1]	IgG reactive to peptide in plasma [2]	IgG reactive to peptide in plasma [3]	IgG reactive to peptide in plasma [4]	IgG reactive to peptide in plasma [5]	IgG reactive to peptide in plasma, Total (positive/tested) (Prostate cancer patients)	IgG reactive to peptide in plasma (Prostate cancer patient 8, A11)	IgG reactive to peptide in plasma (Prostate cancer patient 13, A11)	IgG reactive to peptide in plasma (Prostate cancer patient 2, A31)	IgG reactive to peptide in plasma (Prostate cancer patient 7, A11)	IgG reactive to peptide in plasma (Prostate cancer patient 18, A33)	IgG reactive to peptide in plasma (Prostate cancer patient 16, A33)	IgG reactive to peptide in plasma (Prostate cancer patient 10, A11)
PSMA 456-463 (IEGNYTLR; UniProt Q04609 456-463, looked up, fragment)	0/9	+ (IgG reactive to a corresponding peptide was judged to be positive when a difference of the optical density (OD) in a 1:100-diluted plasma was more than 100)	+ (IgG reactive to a corresponding peptide was judged to be positive when a difference of the optical density (OD) in a 1:100-diluted plasma was more than 100)	+ (IgG reactive to a corresponding peptide was judged to be positive when a difference of the optical density (OD) in a 1:100-diluted plasma was more than 100)	+ (IgG reactive to a corresponding peptide was judged to be positive when a difference of the optical density (OD) in a 1:100-diluted plasma was more than 100)	+ (IgG reactive to a corresponding peptide was judged to be positive when a difference of the optical density (OD) in a 1:100-diluted plasma was more than 100)	+ (IgG reactive to a corresponding peptide was judged to be positive when a difference of the optical density (OD) in a 1:100-diluted plasma was more than 100)	+ (IgG reactive to a corresponding peptide was judged to be positive when a difference of the optical density (OD) in a 1:100-diluted plasma was more than 100)	+ (IgG reactive to a corresponding peptide was judged to be positive when a difference of the optical density (OD) in a 1:100-diluted plasma was more than 100)	+ (IgG reactive to a corresponding peptide was judged to be positive when a difference of the optical density (OD) in a 1:100-diluted plasma was more than 100)	9/20							
PSMA 590-698	0/9	+ (IgG reactive to a corresponding peptide was judged to be positive when a difference of the optical density (OD) in a 1:100-diluted plasma was more than 100)	+ (IgG reactive to a corresponding peptide was judged to be positive when a difference of the optical density (OD) in a 1:100-diluted plasma was more than 100)	+ (IgG reactive to a corresponding peptide was judged to be positive when a difference of the optical density (OD) in a 1:100-diluted plasma was more than 100)	+ (IgG reactive to a corresponding peptide was judged to be positive when a difference of the optical density (OD) in a 1:100-diluted plasma was more than 100)	+ (IgG reactive to a corresponding peptide was judged to be positive when a difference of the optical density (OD) in a 1:100-diluted plasma was more than 100)	+ (IgG reactive to a corresponding peptide was judged to be positive when a difference of the optical density (OD) in a 1:100-diluted plasma was more than 100)	+ (IgG reactive to a corresponding peptide was judged to be positive when a difference of the optical density (OD) in a 1:100-diluted plasma was more than 100)	+ (IgG reactive to a corresponding peptide was judged to be positive when a difference of the optical density (OD) in a 1:100-diluted plasma was more than 100)	+ (IgG reactive to a corresponding peptide was judged to be positive when a difference of the optical density (OD) in a 1:100-diluted plasma was more than 100)	11/20	+ (IgG reactive to a corresponding peptide was judged to be positive when a difference of the optical density (OD) in a 1:100-diluted plasma was more than 100)	+ (IgG reactive to a corresponding peptide was judged to be positive when a difference of the optical density (OD) in a 1:100-diluted plasma was more than 100)					
RIYNVIGTLR [PSMA 354-363]	0/9			+ (IgG reactive to a corresponding peptide was judged to be positive when a difference of the optical density (OD) in a 1:100-diluted plasma was more than 100)						+ (IgG reactive to a corresponding peptide was judged to be positive when a difference of the optical density (OD) in a 1:100-diluted plasma was more than 100)	2/20							
RNKSVILLGR (PSA 68-77) [PSA-derived peptide]	0/9										0/20							
SLYTKVVHYR [PSA 241-250]	0/9										0/20							
SYKHEQVYIR (PAP 96-105) [PAP-derived peptide]	1/9						+ (IgG reactive to a corresponding peptide was judged to be positive when a difference of the optical density (OD) in a 1:100-diluted plasma was more than 100)				1/20							
TLRGAVEPDR [PSMA 361-370]	0/9	+ (IgG reactive to a corresponding peptide was judged to be positive when a difference of the optical density (OD) in a 1:100-diluted plasma was more than 100)		+ (IgG reactive to a corresponding peptide was judged to be positive when a difference of the optical density (OD) in a 1:100-diluted plasma was more than 100)	+ (IgG reactive to a corresponding peptide was judged to be positive when a difference of the optical density (OD) in a 1:100-diluted plasma was more than 100)	+ (IgG reactive to a corresponding peptide was judged to be positive when a difference of the optical density (OD) in a 1:100-diluted plasma was more than 100)	+ (IgG reactive to a corresponding peptide was judged to be positive when a difference of the optical density (OD) in a 1:100-diluted plasma was more than 100)	+ (IgG reactive to a corresponding peptide was judged to be positive when a difference of the optical density (OD) in a 1:100-diluted plasma was more than 100)	+ (IgG reactive to a corresponding peptide was judged to be positive when a difference of the optical density (OD) in a 1:100-diluted plasma was more than 100)	+ (IgG reactive to a corresponding peptide was judged to be positive when a difference of the optical density (OD) in a 1:100-diluted plasma was more than 100)	12/20	+ (IgG reactive to a corresponding peptide was judged to be positive when a difference of the optical density (OD) in a 1:100-diluted plasma was more than 100)		+ (IgG reactive to a corresponding peptide was judged to be positive when a difference of the optical density (OD) in a 1:100-diluted plasma was more than 100)	+ (IgG reactive to a corresponding peptide was judged to be positive when a difference of the optical density (OD) in a 1:100-diluted plasma was more than 100)	+ (IgG reactive to a corresponding peptide was judged to be positive when a difference of the optical density (OD) in a 1:100-diluted plasma was more than 100)		
VIARYGKVFR (PSMA 201-210) [PSMA-derived peptide]	0/9	+ (IgG reactive to a corresponding peptide was judged to be positive when a difference of the optical density (OD) in a 1:100-diluted plasma was more than 100)		+ (IgG reactive to a corresponding peptide was judged to be positive when a difference of the optical density (OD) in a 1:100-diluted plasma was more than 100)	+ (IgG reactive to a corresponding peptide was judged to be positive when a difference of the optical density (OD) in a 1:100-diluted plasma was more than 100)	+ (IgG reactive to a corresponding peptide was judged to be positive when a difference of the optical density (OD) in a 1:100-diluted plasma was more than 100)		+ (IgG reactive to a corresponding peptide was judged to be positive when a difference of the optical density (OD) in a 1:100-diluted plasma was more than 100)	+ (IgG reactive to a corresponding peptide was judged to be positive when a difference of the optical density (OD) in a 1:100-diluted plasma was more than 100)	+ (IgG reactive to a corresponding peptide was judged to be positive when a difference of the optical density (OD) in a 1:100-diluted plasma was more than 100)	7/20						+ (IgG reactive to a corresponding peptide was judged to be positive when a difference of the optical density (OD) in a 1:100-diluted plasma was more than 100)	
VTKFMLCAGR (PSA 192-201) [PSA-derived peptide]	0/9										1/20							+ (IgG reactive to a corresponding peptide was judged to be positive when a difference of the optical density (OD) in a 1:100-diluted plasma was more than 100)
